Values after ≈ are worked out from the molar mass of the structure shown.
Assays:
Mexican bean beetle (BB) = assay: Bean beetle test, sprayed bean leaves infested with third instar larvae, percent killed after 48 hours; assay type: in vivo; conditions: Epilachna varivestis, lethal concentration at which 50% of the pests are killed
Text: Mexican bean beetle (BB)
(§1) A test solution containing 600 ppm of test compound is made by dissolving the test compound in a solvent (acetone:methanol, 1:1), adding surfactant and then water to give an acetone:methanol:water system of 10:10:80. A 1:1 mixture of an alkylarylpolyether-alcohol (commercially available under the trademark Triton X-155) and a modified phthalic glycerol alkyd resin (commercially available under the trademark Triton B-1956) can be utilized at the equivalent of one ounce per gallon of test solution as a surfactant.
(§2) For the bean beetle and armyworm test, detached bean leaves on pieces of moistened filter paper are sprayed as above for the mite test in similar dishes and allowed to dry. One such dish is infested with 10 third instar Mexican bean beetle larvae, while another is infested with 10 third instar southern armyworm larvae. The dishes are covered. After holding for 48 hours, the percent killed is obtained.

Green peach aphid (GPA) = assay: Green peach aphid test, sprayed infested broccoli leaves, percent killed after 24 hours; assay type: in vivo; conditions: Myzus persicae, lethal concentration at which 50% of the pests are killed
Text: as §1
(§3) For the mite test, infested bean (Phaseolus limeanus) leaf discs (1.25 inches in diameter) containing about 50 mites and for green peach aphid tests, infested broccoli (Brassica oleracea italica) leaves or portions thereof containing about 50 aphids are placed in a Petri dish lid on a moistened piece of cotton. The leaves are then sprayed with the test solution using a rotating turntable. They are held for 24 hours and then the percent killed is determined.

[1] = test system: Two-spotted spider mite (TSM); assay: Mite test, sprayed infested bean leaf discs, percent killed after 24 hours; assay type: in vivo; conditions: Tetranychus urticae, foliar, lethal concentration at which 50% of the pests are killed
Text: Two-spotted spider mite
as §1, §3

Corn rootworm ova = assay: Southern corn rootworm ova test, sprayed filter paper, 6 days; assay type: in vivo, Diabrotica undecimpunctata howardi; conditions: 144 h, lethal concentration at which 50% of the pests are killed
Text: (§4) Diabrotica undecimpunctata howardi
as §1
(§5) For tests involving the southern corn rootworm ova and larvae, two layers of 4.25 cm. filter papers are placed in small, Petri dishes, and sprayed on the turntable with a 600 ppm solution of the test compound and air dried. About 100 eggs in about one milliliter of water are pipetted onto the filter paper and the dishes covered. These are held for 6 days and examined under the microscope. The percent kill values for ova and larvae are determined.

Corn rootworm larva = assay: Southern corn rootworm larvae test, sprayed filter paper, 6 days; assay type: in vivo, Diabrotica undecimpunctata howardi; conditions: 144 h, lethal concentration at which 50% of the pests are killed
Text: as §4, §1, §5

Southern armyworm (AW) = assay: Armyworm test, sprayed bean leaves infested with third instar larvae, percent killed after 48 hours; assay type: in vivo; conditions: Spodoptera eridania, lethal concentration at which 50% of the pests are killed
Text: as §1, §2

Boll weevil (BW) = assay: Boll weevil test, sprayed jars with adult boll weevils, percent kill after 48 hours; assay type: in vivo; conditions: Anthonomus grandis, lethal concentration at which 50% of the pests are killed
Text: as §1
For the boll weevil and house fly tests, half pint glass canning jars with a screened top are used. Food is supplied for the boll weevil (apple) and for the house fly (sugar water). The test insects consist of 10 adult boll weevils and 20 adult house flies. The jars containing the insects are sprayed using the turntable. The percent kill of boll weevil is determined 48 hours after the application. In the house fly test, a percent knockdown is determined one hour after application, the percent kill after 24 hours.

Compound | LC50 (Mexican bean beetle (BB)) | LC50 (Green peach aphid (GPA)) | LC50 [1] | LC50 (Corn rootworm ova) | LC50 (Corn rootworm larva) | LC50 (Southern armyworm (AW)) | LC50 (Boll weevil (BW))
CCCSP(=S)(OCC)Oc1ccc(S(=O)(=O)Oc2ccccc2)cc1 (centres unmarked) [XIII, O-Ethyl O-[4-(phenoxysulfonyl)phenyl]S-n-propyl phosphorodithiolate] | 150 µg/mL (≈ 347 µM) | 38 µg/mL (≈ 87.9 µM) | 8 µg/mL (≈ 18.5 µM) | > 600 µg/mL | 10 µg/mL (≈ 23.1 µM) | 75 µg/mL (≈ 173 µM) | 150 µg/mL (≈ 347 µM)
CCCSP(=O)(OCC)Oc1ccc(S(=O)(=O)Oc2ccc(C)cc2)cc1 (centres unmarked) [VIII, O-Ethyl-O-[4-(4'-methylphenoxysulfonyl)phenyl]S-n-propyl phosphorothiolate] | 150 µg/mL (≈ 348 µM) | 7.5 µg/mL (≈ 17.4 µM) | 20 µg/mL (≈ 46.5 µM) | 550 µg/mL (≈ 1280 µM) | 33 µg/mL (≈ 76.7 µM) | 75 µg/mL (≈ 174 µM) | > 600 µg/mL
CCOP(=O)(Oc1ccc(S(=O)(=O)Oc2ccccc2)cc1)SC(C)CC (centres unmarked) [IX, S-sec-Butyl O-ethyl O-[4-(phenoxysulfonyl)phenyl]phosphorothiolate] | 15 µg/mL (≈ 34.8 µM) | 2.8 µg/mL (≈ 6.5 µM) | 5.8 µg/mL (≈ 13.5 µM) | 230 µg/mL (≈ 534 µM) | 8.4 µg/mL (≈ 19.5 µM) | 45 µg/mL (≈ 105 µM) | 75 µg/mL (≈ 174 µM)
CCCCSP(=O)(OCC)Oc1ccc(S(=O)(=O)Oc2ccccc2)cc1 (centres unmarked) [X] | 27 µg/mL (≈ 62.7 µM) | 8.6 µg/mL (≈ 20 µM) | 5 µg/mL (≈ 11.6 µM) | > 600 µg/mL | 75 µg/mL (≈ 174 µM) | 41 µg/mL (≈ 95.2 µM) | > 600 µg/mL
CCCSP(=O)(OCC)Oc1ccc(S(=O)(=O)Oc2ccc(SC)cc2)cc1 (centres unmarked) [VII, O-Ethyl-O-[4-(4'-methylthiophenoxysulfonyl)phenyl]S-n-propyl phosphorothiolate] | 162 µg/mL (≈ 350 µM) | 6.4 µg/mL (≈ 13.8 µM) | 2.4 µg/mL (≈ 5.19 µM) | > 600 µg/mL | 130 µg/mL (≈ 281 µM) | 27 µg/mL (≈ 58.4 µM) | 550 µg/mL (≈ 1190 µM)
CCCSP(=O)(OCC)Oc1ccc(S(=O)(=O)Oc2ccc([N+](=O)[O-])cc2)cc1 (centres unmarked) [III, O-Ethyl-O-[4-(4'-nitrophenoxysulfonyl)phenyl]S-n-propyl phosphorothiolate] | 75 µg/mL (≈ 163 µM) | 6.2 µg/mL (≈ 13.4 µM) | 5 µg/mL (≈ 10.8 µM) | > 600 µg/mL | 75 µg/mL (≈ 163 µM) | 45 µg/mL (≈ 97.5 µM) | > 600 µg/mL
CCCSP(=O)(OCC)Oc1ccc(S(=O)(=O)Oc2ccccc2)cc1 (centres unmarked) [Example II, O-Ethyl O-[4-(phenoxysulfonyl)phenyl]S-n-propyl phosphorothiolate] | 75 µg/mL (≈ 180 µM) | 7.5 µg/mL (≈ 18 µM) | 9.8 µg/mL (≈ 23.5 µM) | > 600 µg/mL | 32 µg/mL (≈ 76.8 µM) | 32 µg/mL (≈ 76.8 µM) | 345 µg/mL (≈ 828 µM)
CCCSP(=O)(OCC)Oc1ccc(S(=O)(=O)Oc2ccc(Cl)cc2)cc1 (centres unmarked) [IV, O-[4-(4'-chlorophenoxysulfonyl)phenyl]O-ethyl S-n-propyl phosphorothiolate] | 75 µg/mL (≈ 166 µM) | 2.5 µg/mL (≈ 5.54 µM) | 2.9 µg/mL (≈ 6.43 µM) | 142 µg/mL (≈ 315 µM) | 4.1 µg/mL (≈ 9.09 µM) | 75 µg/mL (≈ 166 µM) | 138 µg/mL (≈ 306 µM)
CCCSP(=O)(OCC)Oc1ccc(S(=O)(=O)Oc2ccc(C#N)cc2)cc1 (centres unmarked) [VI, O-[4-(4'-cyanophenoxysulfonyl)phenyl]O-ethyl S-n-propyl phoshorothiolate] | 49 µg/mL (≈ 111 µM) | 18 µg/mL (≈ 40.8 µM) | 6.8 µg/mL (≈ 15.4 µM) | > 600 µg/mL | 38 µg/mL (≈ 86.1 µM) | 41 µg/mL (≈ 92.9 µM) | > 600 µg/mL
CCOP(=O)(Oc1ccc(S(=O)(=O)Oc2ccccc2)cc1)SCC(C)C (centres unmarked) [XI, O-Ethyl S-isobutyl O-[4-(phenoxysulfonyl)phenyl]phosphorothiolate] | 26 µg/mL (≈ 60.4 µM) | 1.3 µg/mL (≈ 3.02 µM) | 6.6 µg/mL (≈ 15.3 µM) | > 600 µg/mL | 142 µg/mL (≈ 330 µM) | 49 µg/mL (≈ 114 µM) | 75 µg/mL (≈ 174 µM)
CCCSP(=O)(OC)Oc1ccc(S(=O)(=O)Oc2ccc([N+](=O)[O-])cc2)cc1 (centres unmarked) [XII, O-Methyl O-[4-(4'-nitrophenoxysulfonyl)phenyl]S-n-propyl phosphorothiola] | 54 µg/mL (≈ 121 µM) | 26 µg/mL (≈ 58.1 µM) | 6.6 µg/mL (≈ 14.8 µM) | > 600 µg/mL | 75 µg/mL (≈ 168 µM) | 45 µg/mL (≈ 101 µM) | 500 µg/mL (≈ 1120 µM)

From patent US4287189A, “O,S-Dialkyl O-oxysulfonylphenyl phosphorothiolates and phosphorodithioates” (priority 1980, dated 1981)
